According to patent publication US20190247405A1, “TREATMENT OF SMA” (Hoffmann-La Roche Inc., priority 2016, published 2019):
Entries after “also recorded” stand apart in the source; their conditions may differ.

Key:
[1] = system: MFM D1+D2 score in SMA patients; experiment: Longitudinal kinetic-pharmacodynamic (KPD) exposure-response analysis and simulations on Phase 2 PK and MFM D1+D2 data; set-up: species or system human
From the text: The pharmacokinetics (PK) and efficacy data from the herewith referred clinical trial study were used to investigate the relationship between olesoxime pharmacokinetic exposure (i.e., average trough concentration Caverage) and the primary efficacy outcome (i.e.: MFM D1+D2 score). A longitudinal kinetic-pharmacodynamic (KPD) approach was applied [Jacqmin et al., 2007]. In the placebo group the progression of the disease over time was best described by a linear function (slope of −0.0201 unit/week with relative standard error of 27%). […] (Data on file).
Simulations were conducted by using this exposure-response function and its associated uncertainty.

[2] = system: patients aged 3-25 years with type 2 or non-ambulatory type 3 SMA; experiment: Randomized, double-blind, placebo-controlled Phase 2 study (NCT01302600) of olesoxime; assay type: in vivo, human; conditions: 100 mg/ml oral liquid suspension, 10 mg/kg per day
Description: A randomized double blind, placebo-controlled, phase 2 study on olesoxime (NTC01302600) was performed on SMA type II and type III patients aged 3 to 25 years.
A randomized, double-blind, placebo-controlled, Phase 2 study (NCT01302600) was performed in 22 secondary care centres in Belgium, France, Germany, Italy, Netherlands, Poland and the UK. Safety and efficacy of olesoxime (TRO19622/RG6083) were assessed in patients aged 3-25 years with type 2 or non-ambulatory type 3 SMA confirmed by weakness and hypotonia, genetic diagnosis, Motor Function Measure (MFM) domains 1 and 2 (D1+D2) relative score (percentage of the maximum sum)≥15% and Hammersmith Functional Motor Scale (HFMS) score at baseline≥3 (non-ambulant≤38). […]
MFM is a validated quantitative scale allowing measurement of the functional motor abilities of an individual affected by a neuromuscular disease, regardless of the diagnosis and the extent of motor deficiencies (Vuillerot et al. Arch Phys Med Rehabil 2013; 94(8): 1555-61). […] Each item is scored on a 4-point (0-3) Likert type scale, where each option contains a clear indication of the level to which the patient has achieved the functional task and higher scores reflect better functional ability. […]
A total score, in addition to the three dimensions, can be calculated, with all scores expressed as a percentage of the maximum possible sum of the item scores. […]

[3] = system: SMNF7/F7; NSE-Cre mice (SMA transgenic mice); experiment: Survival and body weight in transgenic mouse model of SMA; assay type: in vivo; conditions: for mice still alive at 40 days: Conclusion section (vehicle 15%); for animals still alive after 40 days: Results section (vehicle 15%)
From the text: Deletion of the smn gene is lethal in mice (early embryonic lethality). Mutant mice with deletion of smn exon7 restricted to neurons (NSE-Cre; SMNF7/F7, referred to here as SMA transgenic mice) are viable and display a phenotype similar to that described in human patients suffering from the severe types of spinal muscular atrophy (Frugier T., Tiziano F D et al. Hum Mol Genet. 2000, 9, 849-858.)
A pre-clinical study has been carried out on transgenic mouse model of SMA in the severe modelSMN^F7/F7; NSE-Cre with Olesoxime to test for signs of possible efficacy to treats SMA patients.
Endpoint scores included survival (daily observation), body weight (animals were weighed 3 times/week).
Olesoxime (powder) was mixed with Cremophore EL (SIGMA C5135), absolute ethanol (CARLO ERBA RPE 414571) and DMSO (ALLDRICH 27685-5) ([…], respective % of the final volume). After complete dissolution, PBS (phosphate buffered saline) was added (85% of the final volume). Solutions were prepared in volumes sufficient for 3 days; vehicle placebo consisted in the same mixture of excipients without the active principle. Daily treatment (subcutaneous injections, 10 ml/kg) started from P21 to death. Effected mice were killed by cervical dislocation when they became unable to feed, according to ethical considerations or around 45 days for control mice. Experiments were performed blind.
“log Rank”, also called “Mantel-Haenszel” was the statistic test being used to compare the two survival curves. It is a type “Khi2” test that was already available in the library “survival” from R. software (http://lib.stat.cmu.edu/R/CRAN).
The test was applied simultaneously on the 3 groups of mice and for all five stages.
All the mice which died before day 26 were removed from the study. There were 8 in total.

CC(C)CCC[C@@H](C)[C@H]1CC[C@H]2[C@@H]3CCC4=CC(=NO)CC[C@]4(C)[C@H]3CC[C@]12C [olesoxime, Cholest-4-en-3-one oxime]
slope of linear exposure-response relationship (average trough concentration vs MFM D1+D2 score) ([1]; KPD model, relative standard error of 36%): 0.291 unit/ng/mL | plateau of effect in exposure-response relationship ([1]; at the dose of 10 mg): did not reach a plateau | motor function ([2]; SMA type II and III patients): demonstrated potential to maintain motor function | tolerability ([2]; SMA type II and III patients aged 3 to 25 years): well tolerated | mice still alive at 40 days ([3]; 10 mg/kg daily s.c.): 26% | animals still alive after 40 days ([3]; 10 mg/kg daily s.c.): 25% | mice still alive at 40 days ([3]; 30 mg/kg daily s.c.): 50% | animals still alive after 40 days ([3]; 30 mg/kg daily s.c.): 45% | life span / survival ([3]; 30 mg/kg/day s.c. from day 21 to death, log rank test p<0.05 vs vehicle): significant increase in life span; also recorded: longer life span; also recorded: Improves Survival | body weight ([3]; 10 or 30 mg/kg daily s.c. vs vehicle): no difference in body weight
